Laboratory results: ChEMBL document CHEMBL5528047, “A Potent SOS1 PROTAC Degrader with Synergistic Efficacy in Combination with KRASG12C Inhibitor” (J Med Chem, 2024)
The source made the active and inactive calls. The rule behind the calls is not given here.

Key:
MIA PaCa-2 [1] = test: Inhibition of RAS pathway in SOS1 knockout human MIA PaCa-2 cells at 100 nM; format: cell-based
MIA PaCa-2 [2] = test: Inhibition of ERK phosphorylation in human MIA PaCa-2 cells at 300 nM after 24 hrs; format: cell-based
SW837 [3] = test: Antiproliferative activity against human SW837 cells incubated for 6 days by CCK8 assay; format: functional, cell-based; conditions: SW837, 144 h
NCI-H358 [4] = test: Inhibition of RAS pathway in SOS1 knockout human NCI-H358 cells at 100 nM; format: cell-based
MIA PaCa-2 [5] = test: Antiproliferative activity against human MIA PaCa-2 cells incubated for 6 days by CCK8 assay; format: functional, cell-based; conditions: MIA PaCa-2, 144 h
NCI-H358 [6] = test: (§1) Antiproliferative activity against human NCI-H358 cells incubated for 6 days in presence of 10 uM (2S,4R)-1-((S)-2-(5-((4-(((R)-1-(3-amino-5-(trifluoromethyl)phenyl)ethyl)amino)-7-methoxy-2-methylquinazolin-6-yl)oxy)pentanamido)-3,3-dimethylbutanoyl)-4-hydroxy-N-(4-(4-methylthiazol-5-yl)benzyl)pyrrolidine-2-carboxamide by CCK8 assay; format: functional, cell-based; conditions: NCI-H358, 144 h
NCI-H358 [7] = test: Antitumor activity against human NCI-H358 cells xenografted in BALB/c mouse assessed as tumor growth inhibition at 10 mg/kg, ip administered once daily for 28 days; format: functional; conditions: NCI-H358, 672 h, time 28 day, read-out: TGI
MIA PaCa-2 [8] = test: as §1, with “MIA PaCa-2” for “NCI-H358”, “1” for “10”; format: functional, cell-based; conditions: MIA PaCa-2, 144 h
[9] = Stability in human NCI-H358 cells assessed as compound remaining at 0.2 mM after 72 hrs by HPLC analysis; format: ADME, cell-based; conditions: read-out: Stability
SW837 [10] = test: as §1, with “SW837” for “NCI-H358”; format: functional, cell-based; conditions: SW837, 144 h
MIA PaCa-2 [11] = test: as §1, with “MIA PaCa-2” for “NCI-H358”; format: functional, cell-based; conditions: MIA PaCa-2, 144 h
MIA PaCa-2 [12] = test: Upregulation of SOS1 protein in human MIA PaCa-2 cells; format: functional, cell-based
NCI-H358 [13] = test: Upregulation of SOS1 protein in human NCI-H358 cells; format: functional, cell-based
NCI-H358 [14] = test: Inhibition of ERK phosphorylation in human NCI-H358 cells at 300 nM after 24 hrs; format: cell-based
[15] = Stability in human MIA PaCa-2 cells assessed as compound remaining at 0.2 mM after 72 hrs by HPLC analysis; format: ADME, cell-based; conditions: read-out: Stability
NCI-H358 [16] = test: as §1, with “1” for “10”; format: functional, cell-based; conditions: NCI-H358, 144 h
NCI-H358 [17] = test: Antiproliferative activity against human NCI-H358 cells incubated for 6 days by CCK8 assay; format: functional, cell-based; conditions: NCI-H358, 144 h
SW837 [18] = test: as §1, with “SW837” for “NCI-H358”, “1” for “10”; format: functional, cell-based; conditions: SW837, 144 h
MIA PaCa-2 [19] = test: Inhibition of ERK phosphorylation in human MIA PaCa-2 cells at 100 nM after 24 to 72 hrs in presence of BI3406 by Western blotting analysis; format: cell-based; conditions: time 24-72 hrs

In the case of `C=CC(=O)N1CCN(c2nc(=O)n(-c3c(C)ccnc3C(C)C)c3nc(-c4c(O)cccc4F)c(F)cc23)[C@@H](C)C1` [SOTORASIB], the inhibition (MIA PaCa-2 [1]) is reported as “Active”, the inhibition (MIA PaCa-2 [2]) is reported as “Active” and the IC50 (SW837 [3]) is reported as 9 nM. The inhibition (NCI-H358 [4]) was “Active”, the IC50 (MIA PaCa-2 [5]) was 37 nM and the IC50 (NCI-H358 [6]) was 1 nM. The inhibition in vivo at 10 mg/kg (NCI-H358 [7]) was 34.9%, the IC50 (MIA PaCa-2 [8]) was 13 nM and the remaining at 72 h, 200 µM [9] was > 70%. For the same compound, the IC50 (SW837 [10]) was 2 nM, the IC50 (MIA PaCa-2 [11]) was 6 nM and the Activity (MIA PaCa-2 [12]) was “Active”. The Activity (NCI-H358 [13]) was “Active”, the inhibition (NCI-H358 [14]) was “Active” and the remaining at 72 h, 200 µM [15] was > 70%. The IC50 (NCI-H358 [16]) was 4 nM, the IC50 (NCI-H358 [17]) was 10 nM and the IC50 (SW837 [18]) was 3 nM. The inhibition (MIA PaCa-2 [19]) was “Active”.
